Publication PMC3692405, “Disease-associated mutations in CNGB3 promote cytotoxicity in photoreceptor-derived cells” (Molecular Vision, 2013)
Read-outs that look alike come from different tables or passages of the source.

Target: T1, CNGA3 plus CNGB3-F525N channels (Homo sapiens, UniProt Q16281+Q9NQW8, F525N)
T1 construct: expressed in transfected cells; host or cells: Xenopus laevis oocytes injected with cRNA transcribed from pGEMHE constructs
T1 sequence (Q16281 1-694): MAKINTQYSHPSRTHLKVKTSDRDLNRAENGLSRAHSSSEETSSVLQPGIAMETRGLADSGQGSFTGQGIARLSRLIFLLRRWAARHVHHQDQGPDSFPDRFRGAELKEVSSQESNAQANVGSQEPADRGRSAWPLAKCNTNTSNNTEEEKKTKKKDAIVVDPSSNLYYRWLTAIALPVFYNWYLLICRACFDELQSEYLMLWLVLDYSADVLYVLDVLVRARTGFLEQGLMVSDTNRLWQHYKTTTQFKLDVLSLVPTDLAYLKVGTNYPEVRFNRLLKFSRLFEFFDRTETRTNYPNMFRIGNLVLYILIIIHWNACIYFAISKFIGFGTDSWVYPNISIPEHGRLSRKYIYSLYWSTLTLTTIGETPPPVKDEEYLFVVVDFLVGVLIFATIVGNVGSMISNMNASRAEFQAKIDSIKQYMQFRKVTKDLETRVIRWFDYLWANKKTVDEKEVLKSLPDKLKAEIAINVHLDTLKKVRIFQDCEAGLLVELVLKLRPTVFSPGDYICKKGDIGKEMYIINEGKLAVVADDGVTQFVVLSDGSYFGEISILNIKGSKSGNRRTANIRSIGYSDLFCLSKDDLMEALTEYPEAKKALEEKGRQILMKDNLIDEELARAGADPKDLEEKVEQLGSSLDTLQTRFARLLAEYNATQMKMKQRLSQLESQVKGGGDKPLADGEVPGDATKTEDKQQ
T1 sequence (Q9NQW8 1-809 F525N): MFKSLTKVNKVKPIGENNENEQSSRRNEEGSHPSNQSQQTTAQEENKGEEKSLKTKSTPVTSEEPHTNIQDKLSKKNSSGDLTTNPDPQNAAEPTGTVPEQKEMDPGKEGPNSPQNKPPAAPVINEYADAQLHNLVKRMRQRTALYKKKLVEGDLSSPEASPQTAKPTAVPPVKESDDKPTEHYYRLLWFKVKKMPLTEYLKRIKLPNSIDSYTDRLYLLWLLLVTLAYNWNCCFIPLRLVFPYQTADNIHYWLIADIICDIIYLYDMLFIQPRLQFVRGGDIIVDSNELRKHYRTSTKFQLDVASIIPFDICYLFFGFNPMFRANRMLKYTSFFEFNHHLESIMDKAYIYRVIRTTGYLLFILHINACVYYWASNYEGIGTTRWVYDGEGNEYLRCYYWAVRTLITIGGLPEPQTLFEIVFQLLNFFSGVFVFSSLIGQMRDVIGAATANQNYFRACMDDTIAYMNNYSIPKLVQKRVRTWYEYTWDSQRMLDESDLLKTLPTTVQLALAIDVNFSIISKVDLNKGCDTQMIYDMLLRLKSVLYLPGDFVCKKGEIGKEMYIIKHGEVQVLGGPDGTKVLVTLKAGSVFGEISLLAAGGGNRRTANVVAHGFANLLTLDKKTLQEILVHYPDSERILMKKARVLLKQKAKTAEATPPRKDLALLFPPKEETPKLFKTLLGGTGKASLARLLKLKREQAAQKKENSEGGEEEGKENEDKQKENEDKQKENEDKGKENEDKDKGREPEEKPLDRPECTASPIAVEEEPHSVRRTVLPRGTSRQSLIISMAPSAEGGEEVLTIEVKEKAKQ
Assay: Inside-out patch-clamp recording of channels expressed in Xenopus oocytes (CNGB3 F525N)
Assay type: biochemical
Protocol: For heterologous expression in Xenopus laevis oocytes, identical amounts of cDNA were linearized using SphI or NheI, and capped cRNA was transcribed in vitro using the T-7 RNA polymerase mMESSAGE mMACHINE® kit (Ambion, Austin, TX). cRNA concentrations and relative amounts were determined by denaturing gel electrophoresis and KODAK 1D image analysis software (Rochester, NY), as well as by spectrophotometry. […] Oocytes were incubated in ND96 (96 mM NaCl, 2 mM KCl, 1.8 mM CaCl2, 1 mM MgCl2, and 5 mM HEPES, pH 7.6, supplemented with 10 μg/ml gentamycin).
Two to seven days after microinjection of cRNA, patch-clamp experiments were performed using the inside-out configuration with an Axopatch 200B amplifier (Axon Instruments, Foster City, CA). Recordings were made at 20–23 °C. Data were acquired using Pulse software (HEKA Elektronik, Lambrecht, Germany). Current traces were elicited by voltage steps from a holding potential of 0 mV to +80 mV, then to −80 mV and back to 0 mV. Initial pipette resistances were 0.4–0.8 megaohms. Intracellular and extracellular solutions contained 130 mM NaCl, 0.2 mM EDTA, and 3 mM HEPES (pH 7.2). Intracellular solutions were exchanged using an RSC-160 rapid solution changer (Molecular Kinetics, Indianapolis, IN). Currents in the absence of cyclic nucleotides were subtracted. For channel activation by CPT-cGMP or CPT-cAMP, dose–response data were fitted with the Hill equation, I/Imax=([cNMP]^h/(K1/2^h + [cNMP]^h)), where I is the current amplitude at +80 mV, Imax is the maximum current elicited by saturating concentration of ligand, [cNMP] is the ligand concentration, K1/2 is the apparent ligand affinity, and h is the Hill slope. We measured sensitivity to block by L-cis-diltiazem (RBI, Natick, MA) applied to the intracellular face of the patch in the presence of 0.1 μM CPT-cGMP. Data were fit with a modified Hill equation in the form I blocker/I=(K1/2^h/(K1/2^h + [blocker]^h)). Data were analyzed using Igor (Wavemetrics, Lake Oswego, OR), SigmaPlot, and SigmaStat (Systat Software Inc., San Jose, CA). All values are reported as the mean±standard error of the mean of n experiments unless otherwise indicated. Statistical significance was determined using a Student t test or Mann–Whitney rank sum test, and a p value of <0.05 was considered significant.

Row | SMILES | relative agonist efficacy Imax, CPT-cAMP/Imax, CPT-cGMP (+80 mV, CPT-cAMP 100 μM vs CPT-cGMP 4 μM, mean±SEM, n=15) | Hill slope h, CPT-cAMP activation (Hill fit, mean±SEM, n=15) | EC50 (Hill fit, mean±SEM, n=15, read-out: apparent affinity K1/2, CPT-cAMP (channel activation)) [µM] | Hill slope h, CPT-cAMP, representative dose-response (representative patch, Figure 5A) | EC50 (representative patch, Figure 5A, read-out: K1/2,CPT-cAMP, representative dose-response) [µM] | Hill slope h, CPT-cGMP activation (+80 mV, Hill fit, mean±SEM) | EC50 (+80 mV, Hill fit, mean±SEM, read-out: apparent CPT-cGMP affinity K1/2, CPT-cGMP (channel activation)) [µM] | maximum patch current density (Imax/area) (+80 mV, saturating CPT-cGMP (4 μM), mean±SEM, n=15) [pA/μm^2] | Hill slope h, CPT-cGMP, representative dose-response (representative patch, Figure 1B) | EC50 (representative patch, Figure 1B, read-out: K1/2,CPT-cGMP, representative dose-response) [µM]
1 | Nc1ncnc2c1nc(Sc1ccc(Cl)cc1)n2[C@@H]1O[C@@H]2COP(=O)(O)O[C@H]2[C@H]1O [CPT-cAMP, CPT-adenosine 3′,5′-cyclic monophosphate] | 0.49±0.04 | 1.4±0.08 | 13.8 ± 1.4 | 1.0 | 10.8 | – | – | – | – | –
2 | Nc1nc2c(nc(Sc3ccc(Cl)cc3)n2[C@@H]2O[C@@H]3COP(=O)(O)O[C@H]3[C@H]2O)c(=O)[nH]1 [CPT-cGMP, 8-(4-chlorophenylthio) guanosine 3′,5′-cyclic monophosphate] | – | – | – | – | – | 1.8±0.04 | 0.0868 ± 0.0106 | 80.3±18.6 | 1.7 | 0.079
